Patent US11286231B2, “Hydrogen-bonding compounds, compositions comprising the same, and methods of preparing and using the same” (Wake Forest University Health Sciences, priority 2016, dated 2022)

Test: Rheometer tensile strength T′ (adhesive force) test of HyStem hydrogels
Type: physicochemical
Conditions: for increase in T′ when concentration is doubled: 0.25% to 0.50% to 1.0% w/v; for fold increase in tensile strength T′: 1.0% w/v solution; for tensile strength T′: n=3
Experimental: To a 2 mL centrifuge tube, 200 μL of Heprasil® solution (1% w/v solution, thiolated HA component of HyStem kit), 200 μL of Gelin-S® solution (1% w/v, thiolated gelatin component of HyStem kit), 50 μL of Extralink® solution (2% w/v, polyethylene glycol diacrylate component of HyStem kit), and 50 μL of a modular catecholamine (C1.1) or amide […] solutions (0.25%-1.5% w/v, see Rheology section for specifics) were added and mixed by softly pipetting the solution up and down carefully to avoid creating bubbles. For control experiments the modular catecholamide or amine solutions were replaced with an equivalent volume of sterile deionized water. For rheology or cell culture studies, the reaction mixture was placed into wells of an appropriate size and exposed to UV radiation (˜222 nm) for 1-5 seconds.
A Discovery HR-2 Rheometer (TA Instruments) with an 8 mm geometry was used to collect the tensile strength, T′, data. The test was designed to quantify the axial force (Pa) exerted by the hydrogel on the geometry as measured by the rheometer as the geometry is slowly raised over 2000 μm at 25° C. The absolute value of the axial force (Pa) was then taken to be the adhesive force or tensile strength T′ (Pa) assigned to the hydrogel. To ensure standard conditions across all experiments the geometry was lowered into the gels until a calibration force of 0.4N was observed. Following, a rheometer tensile strength test was applied to the hydrogels at each of the respective conditions containing varying concentrations (0% w/v, 0.25% w/v, 0.50% w/v, and 1.0% w/v) of modular amine compounds, C1.0-C1.2. This experiment was repeated in triplicate for each condition.
While not wishing to be bound to any particular theory, our assumption here is that increased intermolecular interactions are occurring with the C1.2. In addition to the ortho-dihydroxyl groups offered by the catechol moiety, the amide moiety offers an extra hydrogen […] species, the carbonyl oxygen (C═O), for intermolecular interactions between the adjacent catecholamides. The catecholamides located on different HA chains or gelatin increase the ability for the hydrogel matrix to both interact with itself and other substrates through hydrogen bonding. Whereas the amine (C1.1) has a secondary carbon in the same position as the carbonyl functional group on the amide (C1.2), we postulate that the lack of this hydrogen bonding position yields a lower increase in G′ observed in hydrogel when comparing the two compounds. Again, to ensure standard conditions across all experiments, the geometry was lowered into the gels until a calibration force of 0.4N was detected. Following, a tensile strength test (25 μm/s, […], 25° C.) was applied to hydrogels containing varying concentrations (0%, 0.25%, […], and 1.0% w/v) of modular amine solutions, C1.1/C1.2. The reported values are the average T′ (Pa) values for n=3 runs at every condition and uncertainties were calculated from standard deviations between n=3 averaged T′ (Pa) for each condition. In FIG. 4, we report the following T′ (Pa) values for hydrogels containing C1.1: (1.10×10^2+/−2.91×10^1) Pa for Hystem® control, (2.90×10^2+/−1.23×10^2) Pa for Hystem®+0.25% w/v catecholamine, (4.25×10^2+/−1.01×10^2) Pa for Hystem® +0.50% w/v catecholamine, and (8.48×10^2+/−1.42×10^2) Pa for Hystem®+1.0% w/v catecholamine. […] In addition, we collected the following T′ values (Pa) for hydrogels containing C1.2: (1.09×10^2+3.64×10^1) Pa for Hystem® control, (3.33×10^2+/−6.16×10^1) Pa for Hystem®+0.25% w/v catecholamide, (4.12×10^2+/−6.39×10^1) Pa for Hystem®+0.50% w/v catecholamide, and (1.16×10^3+/−6.34×10^1) Pa for Hystem®+1.0% w/v catecholamide. […] Conclusively, we can say the increase in allotted tensile strength T′ (Pa) of the hydrogels when cross comparing compounds, C1.1 and C1.2, is due to the amide moiety having higher hydrogen bonding capacities.

[1] = Hystem + 0.25% w/v compound solution
[2] = Hystem + 0.50% w/v compound solution
[3] = Hystem + 1.0% w/v compound solution

SMILES | increase in T′ when concentration is doubled [%] | fold increase in tensile strength T′ | tensile strength T′ [1] | increase in T′, 0.50% w/v to 1.0% w/v (Hystem + 0.50% w/v compared to Hystem + 1.0% w/v) | tensile strength T′ [2] | tensile strength T′ [3]
C#CCNCc1ccc(O)c(O)c1 [Compound C1.1] | ~100 | approximately 4 fold | 2.90×10^2+/−1.23×10^2 Pa | 4.13×10^2+/−1.56×10^1 Pa | 4.25×10^2+/−1.01×10^2 Pa | 8.48×10^2+/−1.42×10^2 Pa
C#CCNC(=O)Cc1ccc(O)c(O)c1 [Compound C1.2] | 200 | ~6 fold | 3.33×10^2+/−6.16×10^1 Pa | – | 4.12×10^2+/−6.39×10^1 Pa | 1.16×10^3+/−6.34×10^1 Pa
